Assays:
[1] = test system: α1,2-L-FT plus α1,4-L-FT of colon tumor CC9338; test: α1,2-L-FT plus α1,4-L-FT assay, colon tumor extract; format: biochemical, human; settings: 1 mg protein of the tissue extract
Protocol: (§1) Colon tumor tissue (CC9338) and breast tumor tissue (BC9400) were obtained during surgical procedures at Roswell Park Cancer Institute and stored frozen within 1 h at −70° C. The tissues were homogenized at 4° C. with 4 volumes of 0.1M Tris Maleate […] 0.1% NaN3 using kinematica. After adjusting the concentration of Triton X-100 to 2%, these homogenates were mixed in the cold room for 1 h using Speci-Mix (Thermolyne) and then centrifuged at 20,000 g for 1 h at 4° C. The clear fat-free supernatant was stored frozen at −20° C. until use. Aliquots of 10 μL from this extract were used in assays run in duplicates. Glycosyltransferase activity in cell lysate was determined by mixing the lysates with acceptor and radiolabeled donor (monosaccharide) under the reaction conditions detailed below, followed by separation of un-reacted donor from the radioactive product using anionic or hydrophobic chromatography. In all cases, the radioactive content of isolated products was determined by using 3a70 scintillation cocktail (Research Products International, Mount Prospect, Ill.) and a Beckman LS6500 scintillation counter. Controls for each assay contained the reaction mixture with everything except the acceptor. All assays were run in duplicate. […]

[2] = molecular target: T1, Rat recombinant α2,3(O)ST (Rattus norvegicus, UniProt Q11205); test: Sialyltransferase assay with cloned α2,3(O)ST; format: biochemical; settings: Table I; acceptor 7.5 mM; 100% = 40560 CPM (3-O-MeGalβ1,4GlcNAcβ1,6(Galβ1,3)GalNAcα-O-Bn)
T1 construct: purchased Calbiochem
T1 sequence (Q11205 1-350): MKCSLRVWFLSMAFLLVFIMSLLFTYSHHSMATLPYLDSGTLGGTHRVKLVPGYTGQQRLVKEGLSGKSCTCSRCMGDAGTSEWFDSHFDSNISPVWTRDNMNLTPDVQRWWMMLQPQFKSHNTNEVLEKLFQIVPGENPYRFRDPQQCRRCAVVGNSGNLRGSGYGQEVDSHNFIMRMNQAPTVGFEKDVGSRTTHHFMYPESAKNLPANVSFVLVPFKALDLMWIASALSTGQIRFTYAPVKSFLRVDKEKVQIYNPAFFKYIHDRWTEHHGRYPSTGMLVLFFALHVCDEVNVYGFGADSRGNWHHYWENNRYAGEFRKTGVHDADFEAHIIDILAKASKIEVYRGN

[3] = test system: LNCaP α2,3(O)ST; test: Sialyltransferase assay with LNCaP cell extract; format: biochemical, human; settings: Table I; acceptor 7.5 mM; 100% = 30930 CPM (3-O-MeGalβ1,4GlcNAcβ1,6(Galβ1,3)GalNAcα-O-Bn)
Procedure, shortened: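 LNCaP Triton X-100 extract (5 mg protein/ml; 0.1M Tris-maleate pH6.3) incubated with acceptor (typically 7.5 mM) and CMP-[9-3H]NeuAc (typically 0.2 μCi) in 0.1M Na cacodylate pH6.0, 2 h at 37 °C, in duplicate. Radioactive product separated on Dowex-1-formate, Sep-Pak C18 or Biogel P2 and counted by scintillation; blank without acceptor subtracted.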

[4] = test system: α1,2-L-FT plus α1,4-L-FT of breast tumor BC9400; test: α1,2-L-FT plus α1,4-L-FT assay, breast tumor extract; format: biochemical, human; settings: 1 mg protein of the tissue extract
Protocol: as §1

[5] = test system: β-GlcNAc:β1,4GalNAc-T of breast tumor BC9400; test: β-GlcNAc:β1,4GalNAc-T assay, breast tumor extract; format: biochemical, human; settings: other acceptors, 1 mg protein of the tissue extract
Protocol: (§2) Colon tumor tissue (CC9338) and breast tumor tissue (BC9400) were obtained during surgical procedures at Roswell Park Cancer Institute and stored frozen within 1 h at −70° C. The tissues were homogenized at 4° C. with 4 volumes of 0.1M Tris Maleate […] 0.1% NaN3 using kinematica. After adjusting the concentration of Triton X-100 to 2%, these homogenates were mixed in the cold room for 1 h using Speci-Mix (Thermolyne) and then centrifuged at 20,000 g for 1 h at 4° C. The clear fat-free supernatant was stored frozen at −20° C. until use. Aliquots of 10 μL from this extract were used in assays run in duplicates. Glycosyltransferase activity in cell lysate was determined by mixing the lysates with acceptor and radiolabeled donor (monosaccharide) under the reaction conditions detailed below, followed by separation of un-reacted donor from the radioactive product using anionic or hydrophobic chromatography. In all cases, the radioactive content of isolated products was determined by using 3a70 scintillation cocktail (Research Products International, Mount Prospect, Ill.) and a Beckman LS6500 scintillation counter. Controls for each assay contained the reaction mixture with everything except the acceptor. All assays were run in duplicate.
(§3) The acceptors used for measuring the glycosyltransferase and sulfotransferase activities are given in Table I. The following are the conditions for individual enzymatic assays. Reaction temperature in all cases was 37° C. α2,3- and α2,6 sialytransferase (ST) assay reactions proceeded for 2 h in a mixture containing 100 mM sodium cacodylate buffer (pH 6.0), 7.5 mM acceptor, CMP-[9-^3H]NeuAc (typically 0.2 μCi) and 10 μl cell extract in a total volume of 20 μl [Chandrasekaran et al., 1995]. βGlcNAc:β1,4Gal-T and αGalNAc:β1,3Gal-T assay mixtures in duplicate contained 0.1M Hepes-NaOH pH 7.0, 7 mM ATP, 20 mM Mn acetate, 1 mM UDP-Gal, UDP [^14C]Gal (0.05 μCi; 327mCi/mmol; Amersham), 0.5 mM acceptor (unless otherwise stated) and the enzyme in a total volume of 20 μL. It was incubated for 4 h [Chandrasekaran et al., 2001]. βGlcNAc:β1,4GalNAc-T assay mixtures in duplicate contained 0.1M Hepes-NaOH pH 7.0, 7 mM ATP, 20 mM Mn acetate. UDP [^3H] GalNAc (0.20 μCi; 7.8 Ci/mmol: New England Nuclear Corp.) 7.5 mM acceptor (unless otherwise stated) and the enzyme in a total volume of 20 μL and incubated for 4 h [Chandrasekaran et al., 2001].
(§4) Dowex-1-C1 or Sep-Pak C18 cartridges were used to isolate radiolabeled product from the reaction mixture. For GalT, GalNAc-T and FT assays, the incubation mixture was diluted with 1 ml water and passed through a 1 ml Dowex-1-C1 column [Chandrasekaran et al., 1996; Chandrasekaran et al., 2001]. The column was washed twice with 1 ml of water. The breakthrough and the water wash contained the [^14C]-galactosylated or [^14C]-fucosylated products formed with neutral acceptors. 3 ml of 0.1M NaCl was used to obtain [^14C]-fucosylated products from sialylated acceptors after water elution. For sialytransferase assays, the radioactive products from benzylglycosides were separated by hydrophobic chromatography on Sep-Pak C18 cartridge (Waters, Milford, Mass.), and elution of the product was done with 3 ml methanol [Palcic et al., 1988]. For sulfotransferase assays, elution of the [^35S]-sulfated compound from Dowex-1-C1 column was achieved by 3 ml of 0.2M NaCl [Chandrasekaran et al., 2004].

[6] = molecular target: T2, FTVI of colon tumor CC9338 (Homo sapiens, UniProt P51993); test: FTVI assay, colon tumor extract; format: biochemical; settings: 1 mg protein of the tissue extract
T2 construct: from tissue; host or cells: colon tumor tissue CC9338, Triton X-100 extract
Protocol: as §1

[7] = test system: β-GlcNAc:β1,4Gal-T of colon tumor CC9338; test: β-GlcNAc:β1,4Gal-T assay, colon tumor extract; format: biochemical, human; settings: other acceptors, 1 mg protein of the tissue extract
Protocol: as §2, §3, §4

[8] = molecular target: T3, FTVI of breast tumor BC9400 (Homo sapiens, UniProt P51993); test: FTVI assay, breast tumor extract; format: biochemical; settings: 1 mg protein of the tissue extract
T3 construct: from tissue; host or cells: breast tumor tissue BC9400, Triton X-100 extract
Protocol: as §1

[9] = test system: β-GlcNAc:β1,4Gal-T of breast tumor BC9400; test: β-GlcNAc:β1,4Gal-T assay, breast tumor extract; format: biochemical, human; settings: other acceptors, 1 mg protein of the tissue extract
Protocol: as §2, §3, §4

[10] = test system: β-GlcNAc:β1,4GalNAc-T of colon tumor CC9338; test: β-GlcNAc:β1,4GalNAc-T assay, colon tumor extract; format: biochemical, human; settings: other acceptors, 1 mg protein of the tissue extract
Protocol: as §2, §3, §4

T3 sequence (P51993 whole entry): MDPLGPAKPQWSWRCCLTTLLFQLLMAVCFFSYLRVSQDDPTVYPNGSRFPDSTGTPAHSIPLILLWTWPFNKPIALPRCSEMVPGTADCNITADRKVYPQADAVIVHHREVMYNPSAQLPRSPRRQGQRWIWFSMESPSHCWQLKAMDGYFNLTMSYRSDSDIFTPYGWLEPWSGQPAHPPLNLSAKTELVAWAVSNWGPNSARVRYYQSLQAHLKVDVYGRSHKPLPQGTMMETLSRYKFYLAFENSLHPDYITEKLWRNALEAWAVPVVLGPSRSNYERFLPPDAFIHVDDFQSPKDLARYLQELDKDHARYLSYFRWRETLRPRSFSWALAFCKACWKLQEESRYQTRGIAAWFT
T2 sequence (P51993 whole entry): as above

Row | SMILES | α1,2-L-FT plus α1,4-L-FT activity: incorporation of radioactive sugar [1] [CPM × 10^−3] | Sialyltransferase activity (%) Cloned α2,3(O)ST [2] [%] | Sialyltransferase activity (%) LNCaP α2,3(O)ST [3] [%] | α1,2-L-FT plus α1,4-L-FT activity: incorporation of radioactive sugar [4] [CPM × 10^−3] | b) β-GlcNAc:β1,4GalNAc-T activity: incorporation of radioactive sugar [5] [CPM × 10^−3] | FTVI activity: incorporation of radioactive sugar [6] [CPM × 10^−3] | a) β-GlcNAc:β1,4Gal-T activity: incorporation of radioactive sugar [7] [CPM × 10^−3] | FTVI activity: incorporation of radioactive sugar [8] [CPM × 10^−3] | a) β-GlcNAc:β1,4Gal-T activity: incorporation of radioactive sugar [9] [CPM × 10^−3] | b) β-GlcNAc:β1,4GalNAc-T activity: incorporation of radioactive sugar [10] [CPM × 10^−3]
1 | CO[C@@H]1O[C@H](CO)[C@H](O)[C@H](O[C@@H]2O[C@H](CO)[C@@H](O)[C@H](O[C@@H]3O[C@H](CO)[C@H](O)[C@H](O)[C@H]3O)[C@H]2NC(C)=O)[C@H]1O [Galβ1,3GlcNAcβ1,3Galβ-O-Me] | 578.9 | 37.2 | 1.4 | 16.8 |  |  |  |  |  | 
2 | CC(=O)N[C@H]1[C@H](OCc2ccccc2)O[C@H](CO)[C@@H](O[C@@H]2O[C@H](CO)[C@@H](O)[C@H](O)[C@H]2NC(C)=O)[C@@H]1O [GlcNAcβ1,4GlcNAcβ-O-Bn] |  |  |  |  | 57.8 | 139.1 | 307.6 | 0.3 | 436.7 | 18.9

— US20100221763A1, “Specific Acceptors for Transferases to Saccharides and Method for Obtaining and Using Same” (Health Research, Inc, priority 2005, published 2010)
